Reference: patent EP0973746B1, “SUBSTITUTED 3-CYANO QUINOLINES” (Wyeth Holdings Corporation, priority 1997, dated 1998)
pIC50: −log10 of the molar value. Converted amounts (≈) assume the structure as drawn. Read-outs that look alike come from different tables or passages of the source.

What was measured:
[1] = target: epidermal growth factor receptor kinase (Homo sapiens, UniProt P00533); experiment: biochemical
[2] = target: T1, Kinase insert Domain containing Receptor (KDR: the catalytic domain of the VEGF receptor) (Homo sapiens, UniProt P35968); experiment: Inhibition of Kinase insert Domain containing Receptor (KDR); type: biochemical; conditions: pH 7.2; radioactive format; read-out: KDR IC50 (converted);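 also: KDR phosphorylating a Glu:Tyr 4:1 copolymer with P32- or P33-labelled ATP, Mg++ and vanadate, read as acid-insoluble radiolabel, compared with compound-free reaction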
T1 construct: KDR: the catalytic domain of the VEGF receptor

[3] = target: Epithelial Cell Kinase (ECK) (Homo sapiens, UniProt P29317); experiment: biochemical
Procedure: In this standard pharmacological test procedure, a biotinylated peptide substrate is first immobilized on neutravidin-coated microtiter plates. The test drug, the Epithelial Cell Kinase (ECK), Mg^++, sodium vanadate (a protein tyrosine phosphatase inhibitor), and an appropriate buffer to maintain pH (7.2) are then added to the immobilized substrate-containing microtiter wells. ATP is then added to initiate phosphorylation. After incubation, the assay plates are washed with a suitable buffer leaving behind phosphorylated peptide which is exposed to horse radish peroxidase (HRP)-conjugated anti-phosphotyrosine monoclonal antibody. The antibody-treated plates are washed again and the HRP activity in individual wells is quantified as a reflection of degree of substrate phosphorylation.

[4] = target: recombinant human MEK 1 (MAPKK) and recombinant human ERK2 (MAPK); experiment: Mitogen Activated Protein Kinase (MAPK) assay, two component coupled MEK 1 / ERK2; type: biochemical; conditions: separate entries for the same compound = evaluated more than one time;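 also: MEK 1-activated ERK2 phosphorylates MBP or Myc peptide with 33P-ATP, filter capture and scintillation counting, inhibitor preincubated with ERK2 30 min at 0 °C, inhibition relative to uninhibited control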
SW620 = experiment: Inhibition of cancer cell growth as measured by cell number, SW620; type: cell-based, human; conditions: Homo sapiens, SW-620, 48 h;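 also: SW620 was included as a cell line with little or no EGFR or HER2/neu expression, in contrast to receptor-overexpressing lines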
Source text: (§1) The cell lines were chosen since they overexpressed epidermal growth factor receptor (EGFR) (i.e. A431) or HER2/neu (SKBR3), or had little to no expression of the these receptors (SW620, LOX, MCF7).

COLO205 = experiment: Inhibition of cancer cell growth as measured by cell number, COLO205; type: cell-based; conditions: Homo sapiens, COLO 205, 48 h, read-out: IC50 COLO205
SW948 = experiment: Inhibition of cancer cell growth as measured by cell number, SW948; type: cell-based; conditions: Homo sapiens, SW948, 48 h, read-out: IC50 SW948
SKBR3 = experiment: Inhibition of cancer cell growth as measured by cell number, SKBR3; type: cell-based, human; conditions: Homo sapiens, SK-BR-3, 48 h;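 also: SK-BR-3 cells were selected as a line overexpressing HER2/neu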
Source text: as §1

[5] = target: T2, His-tagged cytoplasmic domain of EGFR (Homo sapiens, UniProt P00533); experiment: Inhibition of Epidermal Growth Factor Receptor Kinase (EGF-R) using recombinant enzyme; type: biochemical; conditions: recombinant enzyme; RR-SRC peptide; average of the number of tests; read-out: IC50;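 also: radiometric kinase assay measuring radiolabeled phosphate transfer from ATP onto the peptide tyrosine by scintillation counting, control is reaction without compound, background subtracted, IC50 from dose-response curve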
T2 construct: containing the EGFR cDNA encoding amino acids 645 - 1186 preceded by Met-Ala-(His)6; made in house; host or cells: Sf9 cells, recombinant baculovirus vHcEGFR52

A431 = experiment: Inhibition of cancer cell growth as measured by cell number, A431; type: cell-based, human; conditions: Homo sapiens, A-431, 48 h, read-out: IC50 A431;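 also: human A431 line, picked because it overexpresses epidermal growth factor receptor (EGFR)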
Source text: as §1

LNCAP = experiment: Inhibition of cancer cell growth as measured by cell number, LNCAP; type: cell-based; conditions: Homo sapiens, 48 h, read-out: IC50 LNCAP
LX1 = experiment: Inhibition of cancer cell growth as measured by cell number, LX1; type: cell-based; conditions: Homo sapiens, LX-1, 48 h, read-out: IC50 LX1
A549 = experiment: Inhibition of cancer cell growth as measured by cell number, A549; type: cell-based; conditions: Homo sapiens, A549, 48 h, read-out: IC50 A549
CCL228 = experiment: Inhibition of cancer cell growth as measured by cell number, CCL228; type: cell-based; conditions: Homo sapiens, 48 h, read-out: IC50 CCL228
T47D = experiment: Inhibition of cancer cell growth as measured by cell number, T47D; type: cell-based; conditions: Homo sapiens, 48 h, read-out: IC50 T47D
NEC = experiment: Inhibition of cancer cell growth as measured by cell number, NEC; type: cell-based; conditions: Homo sapiens, 48 h, read-out: IC50 NEC
CCRF-CFM = experiment: Inhibition of cancer cell growth as measured by cell number, CCRF-CFM; type: cell-based; conditions: Homo sapiens, 48 h, read-out: IC50 CCRF-CFM
CX1 = experiment: Inhibition of cancer cell growth as measured by cell number, CX1; type: cell-based; conditions: Homo sapiens, CX-1, 48 h, read-out: IC50 CX1
MCF7 = experiment: Inhibition of cancer cell growth as measured by cell number, MCF7; type: cell-based, human; conditions: Homo sapiens, MCF7, 48 h, read-out: IC50 MCF7, cell number, Sulforhodamine B, 48 hours exposure; Table 5;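 also: MCF7 was included as a line with little or no EGFR or HER2/neu expression, in contrast to the receptor-overexpressing lines of the panel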
Source text: as §1

PC3 = experiment: Inhibition of cancer cell growth as measured by cell number, PC3; type: cell-based; conditions: Homo sapiens, PC-3, 48 h, read-out: IC50 PC3
LOX = experiment: Inhibition of cancer cell growth as measured by cell number, LOX; type: cell-based, human; conditions: Homo sapiens, LOX, 48 h, read-out: IC50 LOX, cell number, Sulforhodamine B, 48 hours exposure; Table 6;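 also: LOX cells served as a line with low or absent EGFR and HER2/neu expression, in contrast to receptor-overexpressing lines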
Source text: as §1

LS174T = experiment: Inhibition of cancer cell growth as measured by cell number, LS174T; type: cell-based; conditions: Homo sapiens, 48 h, read-out: IC50 LS174T
B7474 = experiment: Inhibition of cancer cell growth as measured by cell number, B7474; type: cell-based; conditions: Homo sapiens, 48 h, read-out: IC50 B7474
[6] = read-out: IC50 SW620, cell number, Sulforhodamine B, 48 hours exposure, Table 4
[7] = read-out: IC50 SKBR3, cell number, Sulforhodamine B, 48 hours exposure, Table 7

T1 sequence (P35968 834-1162 limits assumed): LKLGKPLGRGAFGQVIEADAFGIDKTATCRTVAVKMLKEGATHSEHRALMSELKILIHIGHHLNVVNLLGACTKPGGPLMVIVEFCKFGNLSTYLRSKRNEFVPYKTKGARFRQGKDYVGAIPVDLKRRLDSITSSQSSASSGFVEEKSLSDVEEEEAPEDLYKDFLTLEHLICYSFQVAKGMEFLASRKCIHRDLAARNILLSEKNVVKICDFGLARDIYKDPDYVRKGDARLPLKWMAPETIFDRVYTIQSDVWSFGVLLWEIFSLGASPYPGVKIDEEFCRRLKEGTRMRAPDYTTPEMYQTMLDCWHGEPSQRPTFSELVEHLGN
Epithelial Cell Kinase (ECK), sequence (P29317 24-976, species assumed): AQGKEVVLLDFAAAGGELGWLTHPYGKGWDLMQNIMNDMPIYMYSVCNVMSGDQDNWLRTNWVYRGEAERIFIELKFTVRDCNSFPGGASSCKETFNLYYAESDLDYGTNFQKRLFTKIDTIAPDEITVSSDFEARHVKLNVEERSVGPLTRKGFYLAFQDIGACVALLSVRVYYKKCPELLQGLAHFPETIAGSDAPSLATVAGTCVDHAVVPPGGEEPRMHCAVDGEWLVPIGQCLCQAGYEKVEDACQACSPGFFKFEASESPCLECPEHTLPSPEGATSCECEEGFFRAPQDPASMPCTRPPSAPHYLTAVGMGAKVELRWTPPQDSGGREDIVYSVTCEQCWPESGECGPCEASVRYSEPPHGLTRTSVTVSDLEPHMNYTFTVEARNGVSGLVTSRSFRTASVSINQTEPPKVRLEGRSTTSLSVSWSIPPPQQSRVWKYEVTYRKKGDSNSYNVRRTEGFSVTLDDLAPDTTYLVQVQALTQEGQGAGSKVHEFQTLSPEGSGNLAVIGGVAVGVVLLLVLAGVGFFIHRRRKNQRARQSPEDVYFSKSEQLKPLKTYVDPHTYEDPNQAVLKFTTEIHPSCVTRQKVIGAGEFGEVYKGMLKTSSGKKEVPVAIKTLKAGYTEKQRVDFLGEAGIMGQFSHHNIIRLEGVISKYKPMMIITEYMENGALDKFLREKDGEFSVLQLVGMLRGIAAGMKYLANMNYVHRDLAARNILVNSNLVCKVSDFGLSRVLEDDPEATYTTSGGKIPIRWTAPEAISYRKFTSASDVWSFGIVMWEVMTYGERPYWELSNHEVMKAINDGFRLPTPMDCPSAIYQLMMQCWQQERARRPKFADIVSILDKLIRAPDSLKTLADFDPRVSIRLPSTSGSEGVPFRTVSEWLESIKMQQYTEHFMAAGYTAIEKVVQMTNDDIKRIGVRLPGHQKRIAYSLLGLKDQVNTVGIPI
epidermal growth factor receptor kinase, sequence (P00533 25-1210): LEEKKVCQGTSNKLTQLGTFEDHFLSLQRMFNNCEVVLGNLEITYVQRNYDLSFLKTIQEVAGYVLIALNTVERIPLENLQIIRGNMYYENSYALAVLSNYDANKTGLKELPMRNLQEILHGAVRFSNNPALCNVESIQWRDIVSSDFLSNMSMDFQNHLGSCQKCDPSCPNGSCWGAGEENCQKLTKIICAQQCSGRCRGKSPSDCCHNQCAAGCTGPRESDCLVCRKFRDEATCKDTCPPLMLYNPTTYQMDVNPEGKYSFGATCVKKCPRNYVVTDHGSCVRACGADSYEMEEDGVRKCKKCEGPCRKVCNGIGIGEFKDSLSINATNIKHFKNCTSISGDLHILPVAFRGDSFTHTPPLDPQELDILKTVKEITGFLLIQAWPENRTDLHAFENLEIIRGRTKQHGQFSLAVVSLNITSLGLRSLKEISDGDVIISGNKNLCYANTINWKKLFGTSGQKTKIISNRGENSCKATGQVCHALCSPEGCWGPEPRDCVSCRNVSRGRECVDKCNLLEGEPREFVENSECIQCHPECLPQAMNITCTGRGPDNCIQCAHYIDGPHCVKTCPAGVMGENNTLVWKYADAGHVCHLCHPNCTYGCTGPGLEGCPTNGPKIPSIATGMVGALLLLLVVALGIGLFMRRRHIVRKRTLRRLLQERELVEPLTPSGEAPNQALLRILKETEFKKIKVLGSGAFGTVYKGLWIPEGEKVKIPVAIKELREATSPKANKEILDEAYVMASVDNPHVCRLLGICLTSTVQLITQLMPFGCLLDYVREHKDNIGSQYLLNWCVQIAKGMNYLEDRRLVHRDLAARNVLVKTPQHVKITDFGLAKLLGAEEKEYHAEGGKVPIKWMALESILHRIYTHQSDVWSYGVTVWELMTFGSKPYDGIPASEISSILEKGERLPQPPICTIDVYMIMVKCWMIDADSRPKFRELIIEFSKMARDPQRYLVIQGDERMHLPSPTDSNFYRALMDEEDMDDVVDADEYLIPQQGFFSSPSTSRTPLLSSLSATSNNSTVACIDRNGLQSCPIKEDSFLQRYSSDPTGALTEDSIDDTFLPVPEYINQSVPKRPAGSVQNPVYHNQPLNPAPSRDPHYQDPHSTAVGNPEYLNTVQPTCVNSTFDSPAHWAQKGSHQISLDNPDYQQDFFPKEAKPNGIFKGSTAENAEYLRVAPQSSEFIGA
T2 sequence (P00533 669-1210): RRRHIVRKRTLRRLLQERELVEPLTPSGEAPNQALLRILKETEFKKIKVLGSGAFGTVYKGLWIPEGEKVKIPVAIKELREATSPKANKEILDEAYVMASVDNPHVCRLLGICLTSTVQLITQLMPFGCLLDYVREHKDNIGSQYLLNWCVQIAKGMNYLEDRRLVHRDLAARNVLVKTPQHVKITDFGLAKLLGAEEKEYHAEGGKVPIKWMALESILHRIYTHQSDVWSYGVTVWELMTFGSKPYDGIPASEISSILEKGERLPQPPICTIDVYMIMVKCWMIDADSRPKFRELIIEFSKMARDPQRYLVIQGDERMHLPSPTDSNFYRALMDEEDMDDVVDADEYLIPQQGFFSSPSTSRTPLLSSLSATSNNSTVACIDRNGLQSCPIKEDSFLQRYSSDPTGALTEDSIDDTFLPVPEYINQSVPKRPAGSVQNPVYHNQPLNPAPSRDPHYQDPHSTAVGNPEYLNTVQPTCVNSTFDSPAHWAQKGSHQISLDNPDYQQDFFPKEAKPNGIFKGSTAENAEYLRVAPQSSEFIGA

Row | Compound | IC50 [2] [nM] | pIC50 [3] | pIC50 [4] | other results
1 | N#Cc1cnc2ccc(NC(=O)C#CCN3CCOCC3)cc2c1Nc1cccc(Br)c1 [Example 58, N-[4-[(3-Bromophenyl)amino]-3-cyano-6-quinoliny]-4-morpholino-2-butynamide] |  |  |  | pIC50 [1]: 8.70
2 | COc1cc2ncc(C#N)c(Nc3cccc(SC)c3)c2cc1OC [Example 294, 6,7-Dimethoxy-4-(3-methylsulfanyl-phenylamino)-quinoline-3-carbonitrile] | 17100 | 8.70 | 5.05 | 
3 | CN(C)CC#CC(=O)Nc1ccc2ncc(C#N)c(Nc3cccc(Br)c3)c2c1 [Example 59, N-[4-[(3-Bromophenyl)amino]-3-cyano-6-quinolinyl]-4-dimethylamino-2-butynamide] |  |  |  | pIC50 [1]: 10.00
4 | COc1cc2ncc(C#N)c(Nc3ccc(O)cc3C)c2cc1OC [Example 292, 4-(4-Hydroxy-2-methyl-phenylamino)-6,7-dimethoxy-quinoline-3-carbonitrile] | 29800 | 8.74 | < 4.00 | 
5 | C=C(C)C(=O)Nc1ccc2ncc(C#N)c(Nc3cccc(Br)c3)c2c1 [Example 53, N-[4-[(3-Bromophenyl)amino]-3-cyano-6-quinolinyl]-2-methyl-2-propenamide] |  |  |  | pIC50 [1]: 8.15
6 | COc1cc2c(Nc3cc(O)c(Cl)cc3F)c(C#N)cnc2cc1OCCCN(C)C [Example 84, 4-(4-Chloro-2-fluoro-5-hydroxy-phenylamino)-7-(3-dimethylaminopropoxy)-6-methoxy-quinoline-3-carbonitrile] | 674 | 6.35 | > 6.00 | 
7 | CCOc1cc2ncc(C#N)c(Nc3ccc(C)c(O)c3)c2cc1OC [Example 177, 7-Ethoxy-4-[(3-hydroxy-4-methylphenyl)amino]-6-methoxy-3-quinolinecarbonitrile] | 143 | 8.24 | 4.40 | 
8 | COc1ccc2c(Nc3ccc(C)c(O)c3)c(C#N)cnc2c1 [Example 281, 4-(3-hydroxy-4-methyl-phenylamino)-7-methoxy-quinoline-3-carbonitrile] | 9830 | 8.48 | 5.60 | 
9 | COc1cc2ncc(C#N)c(Nc3c(C)cccc3O)c2cc1OC [Example 246, 4-(2-Hydroxy-6-methyl-phenylamino)-6,7-dimethoxy-quinoline-3-carbonitrile] | > 29800 | 8.22 | 4.46 | 
10 | N#Cc1cnc2ccc(NC(=O)/C=C/Cl)cc2c1Nc1cccc(Br)c1 [Example 51, N-[4-[(3-Bromophenyl)amino]-3-cyano-6-quinolinyl]-3(E)-chloro-2-propenamide] |  |  |  | pIC50 [1]: 10.30
11 | C=CC(=O)Nc1ccc2ncc(C#N)c(Nc3ccc(Br)c(Br)c3)c2c1 [Example 54, N-[4-[(3,4-Dibromophenyl)amino]-3-cyano-6-quinolinyl]-2-propenamide] |  |  |  | pIC50 [1]: 8.15
12 | N#Cc1cnc2ccc([N+](=O)[O-])cc2c1Nc1cccc(C(F)(F)F)c1 [Example 23, 6-Nitro-4[(3-trifluoromethylphenyl)amino]-3-quinolinecarbonitrile] |  | 4.55 | < 4.00 | IC50 (SW620; read-out: IC50 SW620): > 100 µg/mL; IC50 (COLO205): > 100 µg/mL; IC50 (SW948): > 100 µg/mL
13 | COc1cc2c(Nc3ccc(C)c(O)c3)c(C#N)cnc2cc1OCCN(C)C [Example 82, 7-(2-Dimethylamino-ethoxy)-4-(3-hydroxy-4-methylphenylamino)-6-methoxy-quinoline-3-carbonitrile] | 7640 | 4.29 | 5.26 | 
14 | COc1cc2c(Nc3cc(O)c(Cl)cc3F)c(C#N)cnc2c(OC)c1OC [Example 244, 4-(4-Chloro-2-fluoro-5-hydroxy-phenylamino)-6,7,8-trimethoxy-quinoline-3-carbonitrile] | > 74300 | 4.61 | < 4.00 | 
15 | COc1ccc2c(Nc3cc(O)c(Cl)cc3F)c(C#N)cnc2c1 [Example 282, 4-(4-Chloro-2-fluoro-5-hydroxy-phenylamino)-7-methoxy-quinoline-3-carbonitrile] | 5820 | 8.54 | < 4.00 | 
16 | CN(C)CC=CC(=O)Nc1ccc2ncc(C#N)c(Nc3ccc(F)c(Cl)c3)c2c1 [Example 145] | > 70800 | < 4.33 | 4.46 | IC50 (SW620; read-out: IC50 SW620): 0.4 µg/mL (≈ 0.944 µM); IC50 (SKBR3; read-out: IC50 SKBR3): 0.03 µg/mL (≈ 0.0708 µM); pIC50 [5]: 7.22; IC50 (A431): 0.03 µg/mL (≈ 0.0708 µM)
17 | COc1cc2ncc(C#N)c(Nc3cccc(CO)c3)c2cc1OC [Example 48, 4-[(3-(hydroxymethyl)phenyl)amino]-6,7-dimethoxy-3-quinolinecarbonitrile] |  |  |  | IC50 (LNCAP): 40.6 µg/mL (≈ 121 µM); IC50 (LX1): > 100 µg/mL; IC50 (SW620; [6]): > 100 µg/mL; IC50 (SKBR3; [7]): 64.5 µg/mL (≈ 192 µM); IC50 (A549): > 100 µg/mL; IC50 (CCL228): > 100 µg/mL; IC50 (T47D): > 100 µg/mL; IC50 (NEC): > 100 µg/mL; IC50 (CCRF-CFM): > 100 µg/mL; IC50 (CX1): 59.2 µg/mL (≈ 177 µM); IC50 (SW948): > 100 µg/mL; IC50 (MCF7): 79.3 µg/mL (≈ 236 µM); IC50 (PC3): > 100 µg/mL; IC50 (LOX): 47 µg/mL (≈ 140 µM)
18 | COc1cc2ncc(C#N)c(Nc3cc(O)c(Cl)cc3F)c2cc1OC [Example 319, 4-(4-Chloro-2-fluoro-5-hydroxy-phenylamino)-6,7-dimethoxy-quinoline-3-carbonitrile] | 1340 | 9.00 | > 6.00 | 
19 | COc1cc2c(Nc3cccc(Br)c3)c(C#N)cnc2c(OC)c1OC [Example 241, 4-(3-Bromo-phenylamino)-6,7,8-trimethoxy-quinoline-3-carbonitrile] | > 72400 | 5.14 | < 4.00 | 
20 | COc1ccc(Nc2c(C#N)cnc3cc(OC)c(OC)cc23)cc1OC [Example 43, 4-[(3,4-Dimethoxyphenyl)amino]-6,7-dimethoxy-3-quinolinecarbonitrile] |  |  | 4.52 | IC50 (LNCAP): 4.53 µg/mL (≈ 12.4 µM); IC50 (SW620; [6]): 4.33 µg/mL (≈ 11.8 µM); IC50 (SKBR3; [7]): 5.19 µg/mL (≈ 14.2 µM); IC50 (CCL228): 2.56 µg/mL (≈ 7 µM); IC50 (T47D): 4.5 µg/mL (≈ 12.3 µM); IC50 (LS174T): 4.22 µg/mL (≈ 11.6 µM); IC50 (CX1): 3.43 µg/mL (≈ 9.38 µM); IC50 (MCF7): 5.83 µg/mL (≈ 16 µM); IC50 (LOX): 2.86 µg/mL (≈ 7.83 µM)
21 | CCOc1cc2ncc(C#N)c(Nc3cccc(Br)c3)c2cc1OC [Example 176, 4-[(3-Bromophenyl)amino]-7-ethoxy-6-methoxy-3-quinolinecarbonitrile] | 7530 | 8.00 | < 4.00 | 
22 | COc1cc2ncc(C#N)c(Nc3cccc(C(F)(F)F)c3)c2cc1OC [Example 42, 4-[(3-Trifluoromethylphenyl)amino]-6,7-dimethoxy-3-quinolinecarbonitrile] |  |  |  | IC50 (SW620; [6]): 31.2 µg/mL (≈ 83.5 µM); IC50 (SKBR3; [7]): 12.5 µg/mL (≈ 33.6 µM); IC50 (T47D): 6.78 µg/mL (≈ 18.2 µM); IC50 (NEC): 6.47 µg/mL (≈ 17.3 µM); IC50 (LS174T): 5.97 µg/mL (≈ 16 µM); IC50 (CCRF-CFM): 5.23 µg/mL (≈ 14 µM); IC50 (MCF7): 6.14 µg/mL (≈ 16.5 µM); IC50 (B7474): 6.78 µg/mL (≈ 18.2 µM)
23 | COc1cc2c(Nc3ccc(Cl)cc3F)c(C#N)cnc2cc1OCCCCl [Example 76, 4-(4-Chloro-2-fluoro-phenylamino)-7-(3-chloro-propoxy)-6-methoxy-quinoline-3-carbonitrile] | 1670 | 6.33 | > 6.00 | 
24 | N#Cc1cnc2ccc(NC(=O)/C=C\Cl)cc2c1Nc1cccc(Br)c1 [Example 52, N-[4-[(3-Bromophenyl)amino]-3-cyano-6-quinolinyl]-3(Z)-chloro-2-propenamide] |  |  |  | pIC50 [1]: 8.00
25 | N#Cc1cnc2ccc(NC(=O)C#CCO)cc2c1Nc1cccc(Br)c1 [Example 57, N-[4-[(3-Bromophenyl)amino]-3-cyano-6-quinolinyl]-4-hydroxy-2-butynamide] |  |  |  | pIC50 [1]: 8.10
